Source: patent US20240351999A1, “PYRROLYLACYLPIPERIDYLAMINE COMPOUND AND USE THEREOF” (INSTITUTE OF MATERIA MEDICA ,CHINESE ACADEMY OF MEDICAL …, priority 2021, published 2024)
Values after ≈ are worked out from the molar mass of the structure shown. Like-named read-outs stand apart in the source and are kept apart here.

What was measured:
[1] = test system: Staphylococcus aureus ATCC 29213; assay: In vitro antibacterial activity (MIC), microbroth dilution; assay type: cell-based; conditions: ATCC29213, 37° C., 18 h
[2] = test system: Escherichia coli ATCC 25922; assay: as above; assay type: cell-based; conditions: ATCC25922, 37° C., 18 h, read-out: MIC Escherichia coli ATCC 25922
[3] = test system: Escherichia coli ATCC 35218; assay: as above; assay type: cell-based; conditions: ATCC35218, 37° C., 18 h, read-out: MIC Escherichia coli ATCC 35218
[4] = test system: Escherichia coli ECO+ 15-1; assay: as above; assay type: cell-based; conditions: 37° C., 18 h, read-out: MIC Escherichia coli ECO+ 15-1
[5] = test system: Acinetobacter baumannii ATCC 19606; assay: as above; assay type: cell-based; conditions: ATCC19606, 37° C., 18 h, read-out: MIC Acinetobacter baumannii ATCC 19606
[6] = test system: Pseudomonas aeruginosa ATCC 27853; assay: as above; assay type: cell-based; conditions: ATCC27853, 37° C., 18 h, read-out: MIC Pseudomonas aeruginosa ATCC 27853
[7] = test system: Klebsiella pneumoniae KPN-15-1; assay: as above; assay type: cell-based; conditions: KPN151, 37° C., 18 h, read-out: MIC Klebsiella pneumoniae KPN-15-1
[8] = test system: Escherichia coli ATCC25922; conditions: prior art value; cited from earlier work
[9] = test system: Staphylococcus aureus ATCC 25923; assay: In vitro antibacterial activity (MIC), microbroth dilution; assay type: cell-based; conditions: ATCC25923, 37° C., 18 h
[10] = test system: Staphylococcus aureus ATCC 43300 (MRSA); assay: as above; assay type: cell-based; conditions: 18 h, read-out: MIC Staphylococcus aureus ATCC 43300 (MRSA)
[11] = test system: Staphylococcus aureus MRSA 15-1; assay: as above; assay type: cell-based; conditions: 37° C., 18 h
[12] = test system: Staphylococcus epidermidis ATCC 12228; assay: as above; assay type: cell-based; conditions: ATCC12228, 37° C., 18 h
[13] = test system: Staphylococcus epidermidis MRSE 15-1; assay: as above; assay type: cell-based; conditions: 37° C., 18 h
[14] = test system: Enterococcus faecalis ATCC 51575; assay: as above; assay type: cell-based; conditions: ATCC51575, 37° C., 18 h
[15] = test system: Enterococcus faecium EFM 19-1; assay: as above; assay type: cell-based; conditions: EFM191, 37° C., 18 h
[16] = test system: Clostridium difficile ATCC 9689; assay: as above; assay type: cell-based; conditions: for MIC: Clostridioides difficile, ATCC9689, read-out: MIC Clostridium difficile ATCC 9689; for Activity against Clostridium difficile compared with controls: vs DS2969 and vancomycin
[17] = test system: Mycobacterium tuberculosis; assay: Activity against Mycobacterium tuberculosis (MIC); assay type: cell-based; conditions: read-out: Inhibitory activity (MIC) against Mycobacterium tuberculosis
[18] = test system: Staphylococcus aureus ATCC 29213; assay: In vitro induced drug resistance, 20 generations at sub-MIC; assay type: cell-based; conditions: ATCC29213, read-out: MIC value after passage for 20 generations
Description: Test method: MIC values of a compound 1 and a control compound DS2969 against Staphylococcus aureus ATCC 29213 were determined by using a microbroth dilution method recommended by operating procedures for antibacterial susceptibility testing of the Clinical and Laboratory Standards Institute (CLSI).
After testing the MIC values, sub-MIC concentrations (1/2 MIC) of bacteria were diluted, and the concentration of the obtained bacterial solution was adjusted to 105 CFU/mL for a next round of MIC value testing. After 24 hours of incubation, bacterial suspensions were prepared by using bacterial suspensions at sub-MIC concentrations of drugs (1/2 MIC), and another MIC testing was performed. This process was repeated for 20 times, and the MIC value for each test was recorded.
The MIC values of the compound 1 and DS2969 inducing Staphylococcus aureus ATCC29213 for 20 generations were recorded, with the number of generations of bacteria induced as an abscissa and the MIC values as an ordinate (as shown in FIG. 1).

[19] = test system: Staphylococcus aureus (MRSA, ATCC 43300); assay: Antibacterial activity in mice, sepsis model; assay type: in vivo, ICR mice; conditions: MRSA ATCC 43300 sepsis model
Description: (§1) Experimental animals: Beijing Vital River Laboratory Animal Technology Co., Ltd., ICR mice, with a uniform body weight of 20-22 g, and half male and half female.
Model: Sepsis model infected by Staphylococcus aureus (MRSA, ATCC 43300)
Modeling method: mice were infected with […] (diluted with a 5% sterile yeast solution) Staphylococcus aureus (MRSA, ATCC 43300) such that sepsis models of mice were formed (0.5 mL of a bacterial solution was injected intraperitoneally into each mouse).
Experimental scheme: a compound 1 and a positive drug were first dissolved in DMSO, and then diluted with other solvents, wherein a solvent ratio was saline:Tween 80:DMSO=9:0.5:0.5.

[20] = Pharmacokinetic test in mice; assay type: in vivo; conditions: both sexes, ICR, mouse, po, 150 mg/kg intragastric administration; for half-life: read-out: t½z (half-life period) (converted)
Description: as §1
Experimental scheme: a compound 1 was administered at a dose of 150 mg/kg (Solvents were as follows: saline:Tween 80:DMSO=9:0.5:0.5) by intragastric administration, and samples were taken by orbital blood sampling or a mode of sampling blood by enucleating eyeballs at 10 min, 20 min, 30 min, 1 h, 3 h, 5 h, 8 h, 24 h, 36 h, and 48 h after administration, plasma concentrations were determined by UPLC, a drug concentration-time curve was plotted, and key pharmacokinetic parameters were calculated.

[21] = Acute toxicity test in mice; assay type: in vivo
Excerpt: as §1
In a tail vein administration group, there were 10 mice in each group, with half male and half female. In an intragastric administration group and an intraperitoneal administration group, there were four mice in each group, with half male and half female.

COC[C@H](C)NC(=O)c1nc(N2CC[C@@H](NC(=O)c3[nH]c(C)c(Cl)c3Cl)[C@@H](OC)C2)sc1C(=O)O [AZD5099]
MIC [1]: 0.03 µg/mL (≈ 0.0547 µM)
MIC [2]: 32 µg/mL (≈ 58.3 µM)
MIC [3]: 32 µg/mL (≈ 58.3 µM)
MIC [4]: > 64 µg/mL
MIC [5]: > 64 µg/mL
MIC [6]: > 64 µg/mL
MIC [7]: > 64 µg/mL
MIC Escherichia coli ATCC25922 (background) [8]: 32 µg/mL (≈ 58.3 µM)

CO[C@H]1CN(c2ccc(C(C)(C)O)nn2)CC[C@H]1NC(=O)c1[nH]c(C)c(Cl)c1Cl [Compound 1, 3,4-dichloro-N-{(3S,4R)-1-[6-(2-hydroxypropan-2-yl)pyridazin-3-yl]-3-methoxypiperidin-4-yl}-5-methyl-IH-pyrrole-2-carboxamide]
MIC [1]: 0.008 µg/mL (≈ 0.0181 µM)
MIC [9]: ≤ 0.03 µg/mL
MIC [10]: ≤ 0.03 µg/mL
MIC [11]: ≤ 0.03 µg/mL
MIC [12]: ≤ 0.03 µg/mL
MIC [13]: ≤ 0.03 µg/mL
MIC [14]: ≤ 0.03 µg/mL
MIC [15]: ≤ 0.03 µg/mL
MIC [2]: 1 µg/mL (≈ 2.26 µM)
MIC [3]: 1 µg/mL (≈ 2.26 µM)
MIC [4]: 8 µg/mL (≈ 18.1 µM)
MIC [5]: 8 µg/mL (≈ 18.1 µM)
MIC [6]: 4 µg/mL (≈ 9.04 µM)
MIC [7]: 8 µg/mL (≈ 18.1 µM)
MIC [16]: 0.25 µg/mL (≈ 0.565 µM)
Activity against Clostridium difficile compared with controls [16]: stronger than those of DS2969 and the positive control drug vancomycin
MIC [17]: 0.593 µg/mL (≈ 1.34 µM)
MIC [18]: < 1 µg/mL
In vivo antibacterial activity (survival of mice) ([19]; 50 mg/kg, 1 h after modeling, observed 14 days): significant in vivo antibacterial activity and shows better antibacterial activity than DS2969
ED50 ([19]; Staphylococcus aureus, po, intragastric administration at lower dose): 5 mg/kg
bioavailability ([20]; in vivo, read-out: F (bioavailability)): 86%
half-life ([20]; in vivo): 9.2 h
AUC(0-inf) ([20]; plasma): 933 µg·h/mL
Cmax ([20]; plasma): 49400 ng/mL
Tmax ([20]; plasma): 1 h
AUC(0-t) ([20]; plasma, read-out: AUC (0-48)): 916 µg·h/mL
MRT last ([20]; plasma, read-out: MRT (0-48)): 16.1 h
MRT inf ([20]; plasma, read-out: MRT (0-∞)): 16.9 h
half-life ([20]; plasma): 9.21 h
Survival rate on day 14 ([21]; 95 mg/kg by a tail vein): 60%
Survival rate on day 14 ([21]; 200 mg/kg intraperitoneally): 100%
Survival rate on day 14 ([21]; 800 mg/kg by intragastric administration): 75%

CO[C@H]1CN(c2nnc(C(C)(C)O)s2)CC[C@H]1NC(=O)c1[nH]c(C)c(Cl)c1Cl [Compound 2, 3,4-Dichloro-N-((3S,4R)-1-(5-(2-hydroxypropan-2-yl)-1,3,4-thiadiazol-2-yl)-3-methoxypiperidin-4-yl)-5-methyl-1H-pyrrole-2-carboxamide]
MIC [1]: 0.008 µg/mL (≈ 0.0178 µM)
MIC [9]: ≤ 0.03 µg/mL
MIC ([10]; 37° C.): ≤ 0.03 µg/mL
MIC [11]: ≤ 0.03 µg/mL
MIC [12]: ≤ 0.03 µg/mL
MIC [13]: ≤ 0.03 µg/mL
MIC [14]: ≤ 0.03 µg/mL
MIC [15]: ≤ 0.03 µg/mL
MIC [2]: 2 µg/mL (≈ 4.46 µM)
MIC [3]: 1 µg/mL (≈ 2.23 µM)
MIC [4]: 16 µg/mL (≈ 35.7 µM)
MIC [5]: 16 µg/mL (≈ 35.7 µM)
MIC [6]: 8 µg/mL (≈ 17.8 µM)
MIC [7]: 16 µg/mL (≈ 35.7 µM)
MIC [16]: 0.25 µg/mL (≈ 0.558 µM)
Activity against Clostridium difficile compared with controls [16]: stronger than those of DS2969 and the positive control drug vancomycin
MIC [17]: 0.595 µg/mL (≈ 1.33 µM)

CO[C@H]1CN(c2cnc(C(C)(C)O)cn2)CC[C@H]1NC(=O)c1[nH]c(C)c(Cl)c1Cl [Compound 4, 3,4-Dichloro-N-((3S,4R)-1-(5-(2-hydroxypropan-2-yl)pyrazin-2-yl)-3-methoxypiperidin-4-yl)-5-methyl-1H-pyrrole-2-carboxamide]
MIC [1]: 0.25 µg/mL (≈ 0.565 µM)
MIC [12]: 0.5 µg/mL (≈ 1.13 µM)
